Assay results from publication PMC6151437, “Antibacterial Synthetic Peptides Derived from Bovine Lactoferricin Exhibit Cytotoxic Effect against MDA-MB-468 and MDA-MB-231 Breast Cancer Cell Lines” (Molecules : A Journal of Synthetic Chemistry and Natural …, 2017).
Bridge positions count the residues as written; N and C are the ends. Square brackets hold non-standard residues; d marks the D form. Peptide text beside a SMILES is read from it. I, II: the chains in the order shown. Ahx = NCCCCCC(=O)O

Key:
[1] = not given; remark: listed apart in the source

Row | Structure (SMILES) | minimum concentration with maximum (optimal) cytotoxic effect | concentration of maximum cytotoxic effect [1]
1 | N=C(N)NCCC[C@H](NC(=O)[C@H](Cc1c[nH]c2ccccc12)NC(=O)[C@H](CCC(N)=O)NC(=O)[C@H](Cc1c[nH]c2ccccc12)NC(=O)[C@H](CCCNC(=N)N)NC(=O)[C@@H](N)CCCNC(=N)N)C(=O)NCCCC[C@H](NC(=O)[C@H](CCCNC(=N)N)NC(=O)[C@H](Cc1c[nH]c2ccccc12)NC(=O)[C@H](CCC(N)=O)NC(=O)[C@H](Cc1c[nH]c2ccccc12)NC(=O)[C@H](CCCNC(=N)N)NC(=O)[C@@H](N)CCCNC(=N)N)C(=O)NCCCCCC(=O)N[C@@H](CSSC[C@H](NC(=O)CCCCCNC(=O)[C@H](CCCCNC(=O)[C@H](CCCNC(=N)N)NC(=O)[C@H](Cc1c[nH]c2ccccc12)NC(=O)[C@H](CCC(N)=O)NC(=O)[C@H](Cc1c[nH]c2ccccc12)NC(=O)[C@H](CCCNC(=N)N)NC(=O)[C@@H](N)CCCNC(=N)N)NC(=O)[C@H](CCCNC(=N)N)NC(=O)[C@H](Cc1c[nH]c2ccccc12)NC(=O)[C@H](CCC(N)=O)NC(=O)[C@H](Cc1c[nH]c2ccccc12)NC(=O)[C@H](CCCNC(=N)N)NC(=O)[C@@H](N)CCCNC(=N)N)C(N)=O)C(N)=O (I: H-RRWQWRK[Ahx]C-NH2 / II: H-RRWQWRK[Ahx]C-NH2 / III: H-RRWQWR / IV: H-RRWQWR; amide I:7-III:C, II:7-IV:C; disulfide I:9-II:9) | 22 µM | 
2 | CSCC[C@H](NC(=O)[C@H](CCCNC(=N)N)NC(=O)[C@H](Cc1c[nH]c2ccccc12)NC(=O)[C@H](CCC(N)=O)NC(=O)[C@H](Cc1c[nH]c2ccccc12)NC(=O)[C@H](CCCNC(=N)N)NC(=O)[C@@H](N)CCCNC(=N)N)C(=O)N[C@@H](CCCCN)C(=O)N[C@@H](CCCCN)C(=O)N[C@@H](CC(C)C)C(=O)NCC(=O)NCCCC[C@H](NC(=O)CNC(=O)[C@H](CC(C)C)NC(=O)[C@H](CCCCN)NC(=O)[C@H](CCCCN)NC(=O)[C@H](CCSC)NC(=O)[C@H](CCCNC(=N)N)NC(=O)[C@H](Cc1c[nH]c2ccccc12)NC(=O)[C@H](CCC(N)=O)NC(=O)[C@H](Cc1c[nH]c2ccccc12)NC(=O)[C@H](CCCNC(=N)N)NC(=O)[C@@H](N)CCCNC(=N)N)C(=O)NCCCCCC(N)=O (I: H-RRWQWRMKKLGK[Ahx]-NH2 / II: H-RRWQWRMKKLG; amide I:12-II:C) |  | 30 µM
